For one assay, the target named is EGFR (Homo sapiens, UniProt P00533). Nature of the assay: Immunoblot analysis of EGFR phosphorylation and total EGFR. Conditions: for total EGFR levels: upon treatment, PrEC.
The test system of assay [1] is RWPE cells. The assay is described as follows: Sarcosine-induced invasion after pre-treatment with EGFR inhibitor. The class given is cell-based. Particulars: pre-treatment of RWPE cells with 10 μM. An excerpt: (§1) To investigate the biological role of sarcosine elevation in prostate cancer, prostate cancer cell lines VCaP, DU145, 22RV1 and LNCaP and their benign epithelial counterparts, primary benign prostate epithelial cells PrEC and immortalized benign RWPE prostate cells were used.

Assay [2] concerns benign prostate epithelial cells. The assay is described as follows: Modified Boyden chamber matrigel invasion assay, exogenous addition of amino acids. The class given is cell-based. Particulars: compared with sarcosine. As to the method:
as §1
(§2) To determine if sarcosine plays a role in this process, it was added directly to non-invasive benign prostate epithelial cells. Alanine (an isomer of sarcosine) was used as a control for these experiments. […] The present invention is not limited to a particular mechanism. Indeed, an understanding of the mechanism is not necessary to practice the present invention.

The test system of assay [3] is RWPE cells. The assay is described as follows: Invasion upon exogenous sarcosine or glycine with siRNA knock-down of GNMT. The class given is cell-based. As to the method: as §2
A further assay relates to src. Nature of the assay: Immunoblot analysis of src phosphorylation. It counts as cell-based. Particulars: sarcosine-treated PrEC compared to alanine-treated controls. The text has this: (§3) Also total EGFR levels were elevated upon treatment with alanine or sarcosine. […]. […] This observation was further strengthened using both antibody-mediated inhibition of EGFRactivity and siRNA-mediated knock-down of receptor levels.

A further assay concerns p38MAPK. Nature of the assay: Immunoblot analysis of p38MAPK phosphorylation. It counts as cell-based. Particulars: sarcosine-treated PrEC.
Text: as §3
In general terms: A western blot detects proteins with antibodies after separation by electrophoresis.

[4] abbreviates: control non-target siRNA-transfected cells.

Chain of EGFR (P00533 25-1210): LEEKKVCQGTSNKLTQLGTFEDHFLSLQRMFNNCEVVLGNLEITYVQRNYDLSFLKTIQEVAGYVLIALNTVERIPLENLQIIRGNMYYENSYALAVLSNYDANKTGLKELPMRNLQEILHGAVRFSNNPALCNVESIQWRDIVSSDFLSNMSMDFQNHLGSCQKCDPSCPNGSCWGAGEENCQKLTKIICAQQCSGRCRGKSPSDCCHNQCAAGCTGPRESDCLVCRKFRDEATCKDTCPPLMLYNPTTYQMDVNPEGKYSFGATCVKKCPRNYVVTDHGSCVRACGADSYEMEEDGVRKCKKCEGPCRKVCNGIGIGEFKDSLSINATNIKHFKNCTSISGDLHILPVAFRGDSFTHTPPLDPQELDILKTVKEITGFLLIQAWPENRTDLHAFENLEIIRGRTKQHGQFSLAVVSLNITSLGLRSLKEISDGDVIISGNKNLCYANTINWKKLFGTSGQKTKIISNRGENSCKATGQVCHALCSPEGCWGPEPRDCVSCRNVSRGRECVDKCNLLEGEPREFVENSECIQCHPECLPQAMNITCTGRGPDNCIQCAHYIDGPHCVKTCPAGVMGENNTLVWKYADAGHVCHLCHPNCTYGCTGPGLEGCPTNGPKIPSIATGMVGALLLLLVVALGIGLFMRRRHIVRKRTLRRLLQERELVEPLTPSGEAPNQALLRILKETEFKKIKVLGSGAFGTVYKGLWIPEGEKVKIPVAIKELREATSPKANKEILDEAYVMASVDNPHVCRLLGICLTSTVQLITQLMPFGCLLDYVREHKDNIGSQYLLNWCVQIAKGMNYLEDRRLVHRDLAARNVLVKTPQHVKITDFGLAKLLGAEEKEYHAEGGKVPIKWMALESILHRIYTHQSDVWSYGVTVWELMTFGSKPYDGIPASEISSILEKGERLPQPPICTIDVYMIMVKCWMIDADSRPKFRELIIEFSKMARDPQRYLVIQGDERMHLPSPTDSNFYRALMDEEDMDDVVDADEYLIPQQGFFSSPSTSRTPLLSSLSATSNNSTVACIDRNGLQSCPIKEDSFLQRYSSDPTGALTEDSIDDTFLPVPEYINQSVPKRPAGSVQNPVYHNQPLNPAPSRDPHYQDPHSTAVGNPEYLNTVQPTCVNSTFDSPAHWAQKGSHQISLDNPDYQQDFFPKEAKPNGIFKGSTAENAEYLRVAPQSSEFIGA

As for `C[C@H](N)C(=O)O` [alanine, reference compound], the “total EGFR levels” value on EGFR is “elevated”.
In the case of `C#Cc1cccc(Nc2ncnc3cc(OCCOC)c(OCCOC)cc23)c1` [erlotinib], in the assay on RWPE cells [1], the “decrease in sarcosine-induced invasion” value amounted to 2 fold.
In the case of `NCC(=O)O` [glycine], the induction of invasion result in assay [2] is recorded as “also induced invasion in these cells, although to a lesser degree than sarcosine”. For the same compound, the entries for the “invasion upon exogenous amino acid addition, mean±SEM” value with RWPE cells [3] (GNMT knockdown) and with RWPE cells [3] (setting [4]) were 0.20±0.03 and 0.46±0.04, respectively.
Consider `CNCC(=O)O` [sarcosine, N-methylglycine], for which the “invasion upon exogenous amino acid addition, mean±SEM” value with RWPE cells [3] (GNMT knockdown) came to 0.64±0.07; in the assay on RWPE cells [3] (setting [4]), 0.65±0.05. Moreover, the src phosphorylation result with src is listed as “time-dependent increase”. The p38MAPK phosphorylation entry with p38MAPK is “phosphorylation of p38MAPK”. On EGFR (sarcosine-treated PrEC compared to alanine-treated controls), the EGFR phosphorylation entry was “time-dependent increase”. Also, the “total EGFR levels” value on EGFR was “elevated”.

These data come from patent publication US20140051601A1, “METABOLOMIC PROFILING OF CANCER” (METABOLAN INC., priority 2006, published 2014).
